Data from patent publication US20250262209A1, “TREATMENT OF GASTROINTESTINAL DISEASES” (Aclipse Two, Inc., priority 2022, published 2025).

Test system: monocytes differentiated to M1 macrophage
Assay: M1 macrophage differentiation assay
Assay type: cell-based, human
Details: TNF-α, IL-1b, IL-6, IL-12, IL-23 in supernatant on day 7 (MSD); concentrations of Table 9
Source text: The purpose of this study was to evaluate the effects of lobeglitazone and other thiazolidinediones on M1 macrophage differentiation. The test articles and vehicles used in this study were lobeglitazone sulfate, pioglitazone HCl, and rosiglitazone.
M1 macrophage differentiation assay timeline was as follows in Table 8.
Drug concentrations tested in the M1 differentiation assay are as in Table 9.
• (1) Revive frozen monocytes. • (2) Count cells and adjust the cell density to 0.5×10^6 cells/ml with fresh complete differentiation medium (RPMI1640+10% FBS+1% PS plus GM-CSF or M-CSF at 50 ng/ml). • (3) Seed isolated monocyte 100 μL per well on 96-well plate. • (4) Add test articles as the plate map using D300e (final concentration in μM). • (5) Differentiate the monocyte to macrophage in the presence of GM-CSF to M1, or M-CSF to M2 for 5 days. • (6) On day 5, add cytokines at 2× final concentration. • (6a) Prepare medium containing GM-CSF for M1 and M-CSF for M2. • (6b) Add corresponding activator to reach 2× final working concentration: (i) IFNγ stock 0.2 mg/ml: add 2.5 μL stock into 5 ml complete differentiation medium for 100 ng/ml; (ii) LPS stock 1.0 mg/ml: dilute to 20 μg/ml by mixing 2 μL stock into 100 μl medium; then add 10 μl 20 μg/ml LPS to 5 ml complete differentiation medium for 40 ng/ml; (iii) IL-4 stock 0.1 mg/ml: dilute 2 μL stock into 5 ml complete differentiation medium for 40 ng/ml. • (6c) Add 100 μL cytokine containing differentiating medium to each well, and total volume of each well is 200 μL. • (6d) Add test compound again using D300e. Make sure to set the final volume as 200 μL. • (7) Incubate cytokine and test compound for 48 hours. • (8) On day 7, spin down the plates at 300×g for 5 min and collect the supernatant for cytokine quantification using MSD. • (9) M1 associated macrophage cytokines TNF-α, IL-1b, IL-6, IL-12, and IL-23 were quantified.

## COc1ccc(Oc2cc(N(C)CCOc3ccc(CC4SC(=O)NC4=O)cc3)ncn2)cc1 (stereo not shown) [lobeglitazone, 5-(4-(2-((6-(4-Methoxyphenoxy)pyrimidin-4-yl)(methyl)amino)ethoxy)benzyl)thiazolidine-2,4-dione]
  M1 macrophage cytokines expression: did not show the promotion
